Consider four compounds from publication PMC10641818, “Development of First-in-Class Dual Sirt2/HDAC6 Inhibitors as Molecular Tools for Dual Inhibition of Tubulin Deacetylation” (Journal of Medicinal Chemistry, 2023).

Each structure is given as a SMILES string.

Common to all, as to assay type: biochemical
The target of one experiment is T1, Sirt2 (demyristoylation) (Homo sapiens, UniProt Q8IXJ6).
T1 construct: the respective sirtuin (Sirt1_134–747, Sirt2_56–356, or Sirt3_118–395) was mixed with; made in house; host or cells: Escherichia coli BL21 Star (DE3)
T1 sequence (Q8IXJ6 56-356): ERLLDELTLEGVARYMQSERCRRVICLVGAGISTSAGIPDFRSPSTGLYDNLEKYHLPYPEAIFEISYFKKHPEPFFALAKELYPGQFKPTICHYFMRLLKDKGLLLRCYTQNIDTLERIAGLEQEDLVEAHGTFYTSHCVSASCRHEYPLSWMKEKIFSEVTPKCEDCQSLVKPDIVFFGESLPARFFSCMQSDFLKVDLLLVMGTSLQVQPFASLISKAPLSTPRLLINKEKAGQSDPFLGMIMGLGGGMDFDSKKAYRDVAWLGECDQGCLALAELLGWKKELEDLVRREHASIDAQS
Briefly: Discontinuous Sirt2 demyristoylation assay (ZMML substrate).

The target of a further experiment is T2, HDAC1 (Homo sapiens, UniProt Q13547).
T2 construct: purchased BPS Bioscience 50051
T2 sequence (Q13547 whole entry): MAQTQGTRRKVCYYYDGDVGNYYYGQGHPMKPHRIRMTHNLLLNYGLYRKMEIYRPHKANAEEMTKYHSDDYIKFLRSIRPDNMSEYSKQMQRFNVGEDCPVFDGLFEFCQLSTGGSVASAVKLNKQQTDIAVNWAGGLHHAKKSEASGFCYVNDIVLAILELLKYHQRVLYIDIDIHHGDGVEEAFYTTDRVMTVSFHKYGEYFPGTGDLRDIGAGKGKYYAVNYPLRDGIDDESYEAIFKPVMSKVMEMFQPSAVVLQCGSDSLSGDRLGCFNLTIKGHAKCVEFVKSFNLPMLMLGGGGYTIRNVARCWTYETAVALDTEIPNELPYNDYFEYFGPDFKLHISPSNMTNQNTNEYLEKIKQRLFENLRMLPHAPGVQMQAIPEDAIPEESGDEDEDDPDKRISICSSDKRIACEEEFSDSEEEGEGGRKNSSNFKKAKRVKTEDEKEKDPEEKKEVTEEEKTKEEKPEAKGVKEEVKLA
Description: HDAC1 in vitro deacetylation assay (ZMAL). The settings on record: deacetylation, mean ± SD.

Another experiment addresses T3, HDAC6 (Homo sapiens, UniProt Q9UBN7).
T3 sequence (Q9UBN7 1-1215): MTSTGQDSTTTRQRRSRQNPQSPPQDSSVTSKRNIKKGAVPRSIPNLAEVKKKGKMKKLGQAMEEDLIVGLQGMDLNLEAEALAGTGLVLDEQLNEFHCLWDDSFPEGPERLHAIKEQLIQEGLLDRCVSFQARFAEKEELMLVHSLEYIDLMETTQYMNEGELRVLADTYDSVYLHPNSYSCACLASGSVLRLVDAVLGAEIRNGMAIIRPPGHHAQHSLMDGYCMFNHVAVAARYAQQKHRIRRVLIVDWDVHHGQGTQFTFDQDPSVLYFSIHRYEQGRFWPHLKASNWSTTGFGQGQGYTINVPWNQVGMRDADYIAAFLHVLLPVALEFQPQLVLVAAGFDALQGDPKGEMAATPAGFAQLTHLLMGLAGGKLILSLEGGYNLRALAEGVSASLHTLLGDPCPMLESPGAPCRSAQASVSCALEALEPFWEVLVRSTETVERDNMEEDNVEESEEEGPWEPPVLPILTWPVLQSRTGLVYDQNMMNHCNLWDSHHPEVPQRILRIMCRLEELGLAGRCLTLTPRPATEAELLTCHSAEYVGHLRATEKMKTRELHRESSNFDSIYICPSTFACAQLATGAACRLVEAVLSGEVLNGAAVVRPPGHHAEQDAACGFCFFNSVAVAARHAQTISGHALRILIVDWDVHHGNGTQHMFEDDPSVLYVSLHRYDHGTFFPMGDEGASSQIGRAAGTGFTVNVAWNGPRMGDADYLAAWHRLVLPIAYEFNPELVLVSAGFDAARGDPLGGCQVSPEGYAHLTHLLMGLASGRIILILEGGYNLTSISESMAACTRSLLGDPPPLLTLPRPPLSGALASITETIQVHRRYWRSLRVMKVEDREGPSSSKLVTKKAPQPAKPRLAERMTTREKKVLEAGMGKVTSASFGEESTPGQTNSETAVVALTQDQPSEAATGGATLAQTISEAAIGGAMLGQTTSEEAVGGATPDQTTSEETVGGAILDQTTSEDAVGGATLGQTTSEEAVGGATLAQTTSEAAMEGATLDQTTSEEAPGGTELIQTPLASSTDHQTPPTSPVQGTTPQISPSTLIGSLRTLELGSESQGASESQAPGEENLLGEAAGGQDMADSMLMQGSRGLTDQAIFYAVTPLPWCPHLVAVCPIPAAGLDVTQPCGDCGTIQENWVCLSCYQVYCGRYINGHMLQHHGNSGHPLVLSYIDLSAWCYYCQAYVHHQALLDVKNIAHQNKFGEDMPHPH
Description: HDAC6 in vitro deacetylation assay (ZMAL). On the set-up: purchased BPS Bioscience 50006. The settings on record: deacetylation, mean ± SD.

Consider `Cc1cc(C)nc(SCC(=O)Nc2ncc(Cc3cccc(C(=O)NO)c3)s2)n1` [Compound 21, 3-((2-(2-((4,6-Dimethylpyrimidin-2-yl)thio)acetamido)thiazol-5-yl)methyl)-N-hydroxybenzamide], for which the inhibition (commonly the relative decrease from the control value, in per cent) at 20 µM on Sirt2 (demyristoylation) is below 15%.
Consider `CC(=O)NCc1ccc(C(=O)NO)cc1` [Compound 55, 4-(Acetamidomethyl)-N-hydroxybenzamide], for which the values for the IC50 against HDAC1 and against HDAC6 were 17000 ± 1000 nM and 650 ± 40 nM, respectively. Also, the inhibition at 20 µM at Sirt2 (demyristoylation) is below 15%.
In the same order, the values of `O=C(NO)c1ccc(CNC(=O)c2ccccc2)cc1` [Compound 56, 4-(Benzamidomethyl)-N-hydroxybenzamide] are 810 ± 50 nM, 18 ± 1 nM and below 15%.
Turning to `O=C(CCCCCCC(=O)Nc1ccccc1)NO` [SAHA, suberoylanilide hydroxamic acid, reference compound], the “Sirt2 (demyristoylation) percentual inhibition” value on Sirt2 (demyristoylation) (@ 10 μM) came out at 18% @ 10 μM.
